Measurements reported in patent US7186831B2, “5-halo-2-alkyl[1,2,4]triazolo[1,5-a]pyrimidin-7-amines” (priority 2001, dated 2007).

assay: log P by HPLC; assay type: physicochemical; conditions: EEC directive 79/831 Annex V. A8 by HPLC (gradient method, acetonitrile/0.1% aqueous phosphoric acid)

Row | Structure (SMILES) | logP
1 | Cc1nc2nc(Cl)c(-c3c(F)cccc3Cl)c(N3CCC(C)CC3)n2n1 [compound 262] | 3.99
2 | CCC1=CCN(c2c(-c3c(F)cccc3F)c(Cl)nc3nc(C)nn23)CC1 [compound 316] | 3.84
3 | COC(CN(C)c1c(-c2c(F)cccc2F)c(Cl)nc2nc(C)nn12)OC [compound 334] | 2.55
4 | Cc1nc2nc(Cl)c(-c3ccccc3F)c(N3CCCCC3)n2n1 [compound 384] | 3.19
5 | Cc1nc2nc(Cl)c(-c3c(F)cccc3F)c(N3CCCC(C)C3)n2n1 (stereo not shown) [compound 312] | 3.63
6 | CCC(C)Nc1c(-c2c(F)cccc2Cl)c(Cl)nc2nc(C)nn12 (stereo not shown) [compound 264] | 3.14
7 | Cc1nc2nc(Cl)c(-c3c(F)cccc3F)c(N3CCC(NC(=O)OC(C)(C)C)CC3)n2n1 [compound 321] | 3.15
8 | Cc1nc2nc(Cl)c(-c3ccccc3F)c(NOCC(C)C)n2n1 [compound 361] | 2.98
9 | Cc1nc2nc(Cl)c(-c3ccccc3F)c(NOCc3ccccc3Cl)n2n1 [compound 366] | 3.21
10 | CCC(C)ONc1c(-c2ccccc2F)c(Cl)nc2nc(C)nn12 (stereo not shown) [compound 370] | 2.87
11 | Cc1nc2nc(Cl)c(-c3c(F)cccc3Cl)c(N3CCC(F)CC3)n2n1 [compound 266] | 3.07
12 | Cc1nc2nc(Cl)c(-c3c(F)cccc3F)c(NOCc3c(Cl)cccc3Cl)n2n1 [compound 435] | 3.31
13 | C=C(C)CNc1c(-c2ccccc2F)c(Cl)nc2nc(C)nn12 [compound 394] | 2.68
14 | Cc1nc2nc(Cl)c(-c3c(F)cccc3F)c(NCC(F)(F)F)n2n1 [compound 424] | 2.56

The next lines start with the values.

Row | logP | Structure (SMILES)
15 | 2.58 | CCN(CCC#N)c1c(-c2ccc(F)cc2F)c(Cl)nc2nc(C)nn12 [compound 413]
16 | 3.49 | CC1=CCCN(c2c(-c3ccc(F)cc3F)c(Cl)nc3nc(C)nn23)C1 [compound 291]
17 | 3.74 | Cc1nc2nc(Cl)c(-c3ccc(F)cc3F)c(N3CCCC(C)C3)n2n1 (stereo not shown) [compound 286]
18 | 2.68 | Cc1nc2nc(Cl)c(-c3ccc(F)cc3F)c(NCC(F)(F)F)n2n1 [compound 406]
19 | 3.22 | FC(F)(F)CNc1c(-c2ccccc2Cl)c(Cl)nc2nc(C3CC3)nn12 [compound 500]
20 | 3.71 | Clc1ccccc1-c1c(Cl)nc2nc(C3CC3)nn2c1N1CCCCO1 [compound 484]
21 | 4.37 | C=C(C)CN(CC)c1c(-c2ccc(F)cc2F)c(Cl)nc2nc(C3CC3)nn12 [compound 491]
22 | 2.3 | Cc1nc2nc(Cl)c(-c3ccc(F)cc3F)c(N3CCOCC3)n2n1 [compound 296]
23 | 3.59 | CC(Nc1c(-c2c(F)cccc2Cl)c(Cl)nc2nc(C3CC3)nn12)C(F)(F)F (stereo not shown) [compound 457]

same assay, conditions: HPLC

Row | chromatographic logP | Structure (SMILES)
24 | 3.71 | Fc1cc(F)c(-c2c(Cl)nc3nc(C(F)(F)F)nn3c2Cl)c(F)c1 [Example 819, 5,7-dichloro-2-(trifluoromethyl)-6-(2,4,6-trifluorophenyl)[1,2,4]triazolo[1,5-a]pyrimidine]

same assay, conditions: HPLC, gradient method, acetonitrile/0.1% aqueous phosphoric acid; EEC directive 79/831 Annex V. A8

Row | Structure (SMILES) | logP
25 | Fc1cc(F)c(-c2c(Cl)nc3nc(C(F)(F)F)nn3c2NC2CCCC2)c(F)c1 [compound 32] | 4.25
26 | Cc1nc2nc(Cl)c(-c3ccc(Cl)cc3Cl)c(N3OC4CCC3C4)n2n1 (stereo not shown) [compound 780] | 3.41
27 | COCCNc1c(-c2c(F)cc(F)cc2F)c(Cl)nc2nc(C)nn12 [compound 64] | 2.34
28 | Cc1nc2nc(Cl)c(-c3ccccc3Cl)c(NCC(C)C)n2n1 [compound 210] | 3.1
29 | CCCCNc1c(-c2c(F)cccc2F)c(Cl)nc2nc(C)nn12 [compound 560] | 2.89
30 | CCCN(CC1CCCO1)c1c(-c2c(F)cc(F)cc2F)c(Cl)nc2nc(C)nn12 (stereo not shown) [compound 163] | 3.68
31 | Cc1nc2nc(Cl)c(-c3ccccc3Cl)c(N3CCSCC3)n2n1 [compound 235] | 3.09
32 | CCN(CC)c1c(-c2c(F)cc(F)cc2F)c(Cl)nc2nc(C)nn12 [compound 63] | 3.23
33 | C#CCN(C)c1c(-c2ccccc2Cl)c(Cl)nc2nc(C)nn12 [compound 237] | 2.75
34 | CCc1nc2nc(Cl)c(-c3c(F)cc(F)cc3F)c(NC)n2n1 [compound 93] | 2.44
35 | Cc1nc2nc(Cl)c(-c3ccccc3Cl)c(N3CC=CCC3)n2n1 [compound 228] | 0.75
36 | Cc1nc2nc(Cl)c(-c3c(F)cccc3F)c(NC(C)C(F)(F)F)n2n1 (stereo not shown) [compound 182] | 2.78
37 | C=C(C)CN(CC)c1c(-c2ccccc2Cl)c(Cl)nc2nc(C)nn12 [compound 133] | 3.9
38 | Cc1nc2nc(Cl)c(-c3c(F)cccc3F)c(NC(C)C(C)C)n2n1 (stereo not shown) [compound 684] | 3.18
39 | Cc1nc2nc(Cl)c(-c3c(F)cc(F)cc3F)c(N3CCCCO3)n2n1 [compound 574] | 3.07
40 | Cc1nc2nc(Cl)c(-c3ccccc3Cl)c(N3CCOCC3)n2n1 [compound 234] | 2.38
41 | CCC(C)ONc1c(-c2c(F)cccc2F)c(Cl)nc2nc(C)nn12 (stereo not shown) [compound 139] | 2.78
42 | Cc1nc2nc(Cl)c(-c3c(F)cccc3F)c(NC3CC(C(F)(F)F)CC(C(F)(F)F)C3)n2n1 (stereo not shown) [compound 189] | 3.62
43 | Cc1nc2nc(Cl)c(-c3c(F)cccc3F)c(N3CCC(C(F)(F)F)CC3)n2n1 [compound 180] | 3.36
44 | CCN(CCN(C)C)c1c(-c2c(F)cc(F)cc2F)c(Cl)nc2nc(C)nn12 [compound 156] | 1.59

Now from value to compound:

Row | logP | Structure (SMILES)
45 | 3.73 | Cc1nc2nc(Cl)c(-c3c(F)cc(F)cc3F)c(N3Cc4ccccc4CO3)n2n1 [compound 168]
46 | 2.85 | CCc1nc2nc(Cl)c(-c3c(F)cc(F)cc3F)c(NC3CC3)n2n1 [compound 79]
47 | 3.46 | COCCN(C)c1c(-c2ccc(F)cc2Cl)c(Cl)nc2nc(C3CC3)nn12 [compound 628]
48 | 4.28 | CCOC(=O)CN(c1c(-c2ccc(F)cc2F)c(Cl)nc2nc(C(F)(F)F)nn12)C1CC1 [compound 554]
49 | 4.08 | CC(C)CN(C)c1c(-c2c(F)cccc2F)c(Cl)nc2nc(C3CC3)nn12 [compound 676]
50 | 3.3 | COCCN(C)c1c(-c2c(F)cccc2Cl)c(Cl)nc2nc(C3CC3)nn12 [compound 699]
51 | 4.05 | CCOC(=O)CN(CC)c1c(-c2ccc(F)cc2F)c(Cl)nc2nc(C(F)(F)F)nn12 [compound 551]
52 | 5.12 | CC(Nc1c(-c2ccc(F)cc2F)c(Cl)nc2nc(C(F)(F)F)nn12)C1CCCCC1 (stereo not shown) [compound 557]
53 | 3.97 | CCN(Cc1ccco1)c1c(-c2ccc(F)cc2F)c(Cl)nc2nc(C3CC3)nn12 [compound 592]
54 | 1.91 | CCN(CCN(C)C)c1c(-c2ccc(F)cc2F)c(Cl)nc2nc(C(F)(F)F)nn12 [compound 547]
55 | 3.19 | CN(CCC#N)c1c(-c2ccc(F)cc2F)c(Cl)nc2nc(C(F)(F)F)nn12 [compound 542]
56 | 1.28 | Cc1nc2nc(Cl)c(-c3c(F)cccc3F)c(N(C)CCN(C)C)n2n1 [compound 561]
57 | 4.82 | CC1CCN(c2c(-c3ccc(F)cc3Cl)c(Cl)nc3nc(C4CC4)nn23)CC1 [compound 618]
58 | 4.72 | CC(C)C(C)Nc1c(-c2ccc(Cl)cc2Cl)c(Cl)nc2nc(C3CC3)nn12 (single isomer, unassigned) [compound 758]
59 | 3.93 | Fc1ccc(-c2c(Cl)nc3nc(C4CC4)nn3c2NC2CCC(C(F)(F)F)CC2)c(F)c1 (stereo not shown) [compound 659]
60 | 5.25 | C=C(C)CN(CC)c1c(-c2ccc(Cl)cc2Cl)c(Cl)nc2nc(C3CC3)nn12 [compound 769]
61 | 3.63 | CN(Cc1ccco1)c1c(-c2ccc(F)cc2F)c(Cl)nc2nc(C3CC3)nn12 [compound 667]
62 | 4.21 | Fc1ccc(-c2c(Cl)nc3nc(C(F)(F)F)nn3c2NC2CCCC2)c(F)c1 [compound 530]
63 | 3.08 | CCNc1c(-c2ccc(F)cc2F)c(Cl)nc2nc(C)nn12 [compound 687]

Row | logP | Structure (SMILES)
64 | 2.51 | Cc1nc2nc(Cl)c(-c3c(F)cc(F)cc3F)c(NC3CC3)n2n1 [compound 65]
65 | 3.73 | CC(Nc1c(-c2ccc(F)cc2Cl)c(Cl)nc2nc(C3CC3)nn12)C(F)(F)F (racemic) [compound 747]
66 | 3.06 | C=CCN(C)c1c(-c2ccc(F)cc2F)c(Cl)nc2nc(C)nn12 [compound 203]
67 | 3.35 | C=CCN(CC)c1c(-c2ccc(F)cc2F)c(Cl)nc2nc(C)nn12 [compound 207]
68 | 4.06 | C=C(C)CN(CC)c1c(-c2ccc(F)cc2Cl)c(Cl)nc2nc(C)nn12 [compound 643]
69 | 3.44 | CCC(C)Nc1c(-c2c(F)cccc2F)c(Cl)nc2nc(C3CC3)nn12 (stereo not shown) [compound 761]
70 | 3.78 | CCN(CC1CCCO1)c1c(-c2ccc(F)cc2F)c(Cl)nc2nc(C3CC3)nn12 (stereo not shown) [compound 593]
71 | 3.26 | CCCN(CCOC)c1c(-c2ccc(F)cc2F)c(Cl)nc2nc(C)nn12 [compound 209]
72 | 3.46 | Cc1nc2nc(Cl)c(-c3ccc(F)cc3F)c(NC3CCCCC3)n2n1 [compound 197]
73 | 4.22 | CCCN(CC1CCCO1)c1c(-c2ccc(F)cc2F)c(Cl)nc2nc(C3CC3)nn12 (stereo not shown) [compound 600]
74 | 4.21 | CCCCN(C)c1c(-c2ccc(F)cc2F)c(Cl)nc2nc(C3CC3)nn12 [compound 671]
75 | 3.17 | Fc1ccc(-c2c(Cl)nc3nc(C4CC4)nn3c2NCC(F)(F)F)c(F)c1 [compound 714]
76 | 2.77 | Cc1nc2nc(Cl)c(-c3ccc(F)cc3F)c(NCC3CC3)n2n1 [compound 200]
77 | 3.74 | CC(C)CN(N)c1c(-c2c(F)cccc2Cl)c(Cl)nc2nc(C3CC3)nn12 [compound 791]
78 | 3.55 | Fc1cccc(Cl)c1-c1c(Cl)nc2nc(C3CC3)nn2c1N1CCCC1 [compound 704]
79 | 4.07 | CC(C)CN(C)c1c(-c2ccc(F)cc2F)c(Cl)nc2nc(C3CC3)nn12 [compound 668]
80 | 3.04 | Fc1cccc(F)c1-c1c(Cl)nc2nc(C3CC3)nn2c1NCC(F)(F)F [compound 771]
81 | 3.2 | CC(C)Nc1c(-c2ccc(F)cc2F)c(Cl)nc2nc(C3CC3)nn12 [compound 651]
82 | 4.32 | COC(=O)C1CCCCN1c1c(-c2ccc(F)cc2F)c(Cl)nc2nc(C(F)(F)F)nn12 (stereo not shown) [compound 804]
